Tests used:
HIF hydroxylases = experiment: assays in which the compound replaces 2-oxoglutarate as co-substrate; format: biochemical; conditions: compared with 2-oxoglutarate under analogous conditions
From the text: Another aspect of the invention concerns analogues of 2-oxoglutarate that act as improved (relative to 2-oxoglutarate) co-substrates for the HIF hydroxylases. Such a compound is 3-fluoro 2-oxoglutarate.

HIF hydroxylase = experiment: capture assay for inhibitors of HIF modification (pVHL capture); format: biochemical; conditions: result in words; screening at 2 mM of the potential inhibitor, RCC4 cell extract, 100 μM FeCl2
Procedure: In vitro screening of potential inhibitors of HIF modification was performed using a capture assay. A Gal/HIF-1α/VP16 fusion protein expressing HIF-1α residues 549-582 was prepared by IVTT (see British Application No. 0118952.1) and used as a substrate in the assay. The unlabelled substrate was immunopurified on beads, washed, and aliquots incubated in the presence of RCC4 cell extract, with 100 μM FeCl2 and 2 mM of the potential inhibitor. The inhibitors were either dissolved in DMSO or Tris as indicated. Controls, where no inhibitor but the equivalent amount of DMSO or Tris was added, were also performed. After washing, the beads were assayed for their ability to interact with 35-S labelled pVHL IVTT. Hydroxylation of the fusion protein by HIF hydroxylase present in the cell extract leads to the ability to capture the labelled pVHL and the amount of labelled protein bound to the fusion protein can then be measured to determine relative HIF hydroxylase activity. FIGS. 1 to 5 show HIF hydroxylase activity in the presence of a particular inhibitor relative to that seen in the absence of the inhibitor (the DMSO/Tris control).

Row | activity as modulator of HIF prolyl hydroxylase (HIF hydroxylase) | SMILES | level of HIF hydroxylation (HIF hydroxylases)
1 | – | O=C(O)CC(F)C(=O)C(=O)O (centres unmarked) [3-fluoro 2-oxoglutarate, 3-fluoro-2-oxoglutaric acid] | higher level of HIF hydroxylation
2 | highly active | O=C(O)CC1CC(=O)N(O)C1=O (centres unmarked) [Is52, (1-hydroxy-2,5-dioxo-pyrrolidin-3-yl) acetic acid] | –
